Reference: patent publication US20050070544A1, “1,2,5,10-tetrahydropyridazino{4,5-b}quinoline-1,10-diones and their use for the treatment of pain” (AstraZeneca AB, priority 2000, published 2005)
Counter-ions that a name gives are not always drawn.

Columns and labels:
[1] = target: T1, NMDA receptor glycine site (Rattus norvegicus, UniProt P35439); assay: Test A: Inhibition of binding of [3H]-MDL105,519
T1 construct: fresh brain tissue including cerebral cortex and hippocampus from male Sprague Dawley rats was homogenized; tissue Analytical Biological Services Inc; host or cells: rat brain membranes (cerebral cortex and hippocampus, male Sprague Dawley rats)
Protocol: Test A: Inhibition of Binding of [^3H]-MDL105,519:
Binding of compounds to the NMDA receptor glycine site may be assessed by measuring the ability of test compounds to inhibit the binding of tritiated MDL105,519 to brain membranes bearing the receptor.
Rat Brain Membranes: The rat brain membranes used in the experiments were obtained from Analytical Biological Services Inc., and were prepared substantially in accordance with the method of B. M. Baron et al., J. Pharmacol. Exp. Ther. 250, 162 (1989). Briefly, fresh brain tissue including cerebral cortex and hippocampus from male Sprague Dawley rats was homogenized in 0.32 M sucrose and centrifuged at low speed to separate cellular membranes from other cellular components. The membranes were then washed 3 times using deionized water, followed by treatment with 0.04% Triton X-100. Finally, membranes were washed six times in 50 mM Tris citrate buffer, pH 7.4, and frozen at −80° C. until use.
[^3]MDL105,519 (72 Ci/mmol) was purchased from Amersham. Cold MDL105,519 was purchased from Sigma/RBI. Binding assays were performed substantially in accordance with the protocol of B. M. Baron et al., J. Pharmacol. Exp. Ther. 279, 62 (1996), as follows. On the day of the experiment, brain membranes were thawed at room temperature and suspended in 50 mM tris acetate buffer, pH 7.4 (“TAB”). Seventy-five micro grams per milliliter protein (by using the BioRad dye) were used for competition binding. The experiments were carried out using 96-well plates. Membranes were incubated with […] of compounds of various concentrations and 1.2 nM [^3H]MDL105,519 for 30 minutes at room temperature in a total volume of 250 μL. Non specific binding was determined by using 100 μM of unlabeled MDL105,519. The unlabeled MDL105,519 and compounds were dissolved as 12.5 mM stock solutions in DMSO. Final DMSO concentration in each well was kept below 1%, which concentration was found not to alter the binding results. After incubation, unbound [^3H]MDL105,519 was removed by filtration onto GF/B Unifilter plates using a Packard harvester. Filters were washed four times with ice cold TAB (total of 1.2 mL buffer). The plates were dried overnight at room temperature and bound radioactivity was measured on a Packard TopCount after the addition of 45 μL per well of the MICROSCINT O.
Human Brain Membranes: Human brain membranes were obtained from Analytical Biological Services Inc., and assays were performed as described for rat membranes.
Data analysis: Data was analyzed using a Microsoft Excel spreadsheet and GraphPad Prizm software and potency of compounds is expressed as the Ki (nM).

Compound | Ki [1] | melting point
O=c1c2ccc(Cl)cc2[nH]c2c(O)nn(CC#Cc3ccc(Cl)nc3)c(=O)c12 [Ex. 6, 7-Chloro-2-[3-(6-chloro(3-pyridyl))prop-2-ynyl]-4-hydroxy-2,5-dihydropyridazino[4,5-b]quinoline-1,10-dione] | 106 nM | –
O=c1c2ccc(Cl)cc2[nH]c2c(O)nn(CC#Cc3ccc(Cl)cc3)c(=O)c12 [Ex. 3, 7-Chloro-4-hydroxy-2-[3-(4-chlorophenyl)prop-2-ynyl]-1,2,5,10-tetrahydropyridazino[4,5-b]quinoline-1,10-dione] | 86.6 nM | 251 to 252 °C
O=c1c2ccc(Cl)cc2[nH]c2c(O)nn(CC#Cc3ccncc3)c(=O)c12 (as salt: methanesulfonate) [Ex. 1, 7-Chloro-4-hydroxy-2-(3-(4-pyridyl)prop-2-ynyl)1,2,5,10-tetrahydropyridazino[4,5-b]quinoline-1,10-dione 1,3 methanesulfonate] | – | 238 to 241 °C
O=c1c2ccc(Cl)cc2[nH]c2c(O)nn(CC#Cc3cccc(Cl)c3)c(=O)c12 [Ex. 2, 7-Chloro-4-hydroxy-2-[3-(3-chlorophenyl)prop-2-ynyl]-1,2,5,10-tetrahydropyridazino[4,5-b]quinoline-1,10-dione] | 7.86 nM | 220 to 222 °C
O=c1c2ccc(Cl)cc2[nH]c2c(O)nn(CC#Cc3ccncc3)c(=O)c12 [Ex. 1, 7-Chloro-4-hydroxy-2-(3-(4-pyridyl)prop-2-ynyl)1,2,5,10-tetrahydropyridazino[4,5-b]quinoline-1,10-dione 1,3 methanesulfonate] | 67.6 nM | –
O=c1c2ccc(Cl)cc2[nH]c2c(O)nn(CC#Cc3ccccc3Cl)c(=O)c12 [Ex. 4, 7-Chloro-4-hydroxy-2-[3-(2-chlorophenyl)prop-2-ynyl]-1,2,5,10-tetrahydropyridazino[4.5-b]quinoline-1.10-dione] | 113 nM | 255 to 257 °C
CS(=O)(=O)O.O=c1c2ccc(Cl)cc2[nH]c2c(O)nn(CC#Cc3cccnc3)c(=O)c12 [Ex. 5, 7-Chloro-4-hydroxy-2-(3-(3-pyridyl)prop-2-ynyl)-1,2,5,10-tetrahydropyridazino[4,5-b]quinoline-1,10-dione methanesulfonate] | 14 nM | 227 to 229 °C
